Measured values published in patent US6586596B2, “Acetylcholine enhancers” (priority 1998, dated 2003).

Tests used:
[1] = test system: Cynomologous monkeys; assay: Hepatotoxic analysis, two-week oral study; format: in vivo; conditions: monkey, in vivo, po, 5 mg/kg/day
Description: The following parameters were examined: body weight, clinical signs, food consumption, blood biochemistry (GOT, GPT, ALP, LDH, γ-GTP, ChE, Bil, T.Pro, Alb, A/G ratio, T.Cho, NEFA, TG). After the administration period, the animals were sacrificed and autopsied. Organs and tissues were weighed, then examined histopathologically.

[2] = test system: BF-lesioned rats; assay: Water maze, BF lesion-induced deficit in spatial learning; conditions: oral; Cm.A 0.3, 1.0 and 3.0 mg/kg/day, THA 1.0 mg/kg/day, E2020 0.3 and 1.0 mg/kg/day
Description: For each training trial, the rat was placed in the water (22° C.) such that the animal faced the wall of a circular pool (150 cm in diameter, 45 cm in height), and started at one of five starting points (selected randornly). In each trial, the latency period to escape onto the hidden platform (fixed in the middle of one quadrant, 2 cm below the surface of water) was recorded. These procedures were repeated once or twice a day during the experimental period.

[3] = test system: extracellular levels of ACh in hippocampus; assay: ACh release in hippocampus, microdialysis in freely moving rats; format: in vivo
Description: ACh content in perfusate obtained from hippocampus (Bregma, A: −5.8 mm, L: 5.0 mm, H: 4.0 mm) of brain were continuously detected by means of HPLC and ECD through the microdialysis system using freely moving rats (See Messamore and Kawashima, supra). After an equilibration period, five fractions were allowed to obtain basal ACh content. Test substances were injected i.p., and thereafter, microdialytic analysis was conducted for 3 hr.

[4] = test system: extracellular levels of ACh in striatum; assay: ACh release in striatum, microdialysis in freely moving rats; format: in vivo
Description: ACh content in perfusate obtained from striatum (Bregma, A: 0.2 mm, L: 3.0 mm, H: 4.0 mm) of brain were continuously detected by means of HPLC and ECD through the microdialysis system using freely moving rats. See Messamore, E., et al, 32 Neuropharmacol. […] After an equilibration period of more than 2 hours, five fractions were allowed to obtain basal ACh content. Compounds were injected i.p., and thereafter, a microdialytic analysis was conducted for 3 hours.

[5] = test system: Cynomologous monkeys; assay: Hepatotoxic analysis, four-week oral study; format: in vivo
Description: During the testing period, these animals were dosed with three different regimens: first, animals were dosed with 10 mg/kg/day for 7 days, followed by 32 days-washout period, second, animals were dosed with 5 mg/kg/day for 14 days, and thereafter the animals were dosed with 10 mg/kg/day for 7 days. The following parameters were examined: body weight, clinical signs, food consumption, blood biochemistry (GOT, GPT, ALP, LDH, γ-GTP, ChE, Bil, T.Pro, Alb, A/G ratio, T.Cho, NEFA, TG).

[6] = biological target: T1, peripheral 5-HT3 receptor (Rattus norvegicus, UniProt P35563); assay: 5-HT-evoked von Bezold-Jarish Effect (B.J.E.) in anesthetized rats; format: in vivo; conditions: Cm.A 3 to 10 mg/kg; for inhibition of 5-HT-evoked B.J.E. (reflex bradycardia): i.v. pretreatment, E2020 0.1~1 mg/kg, 5-HT 20 μg/kg i.v.; for blood pressure, heart rate and other signs: i.v., THA 10 mg/kg, E2020 higher than 1 mg/kg, data not shown
T1 construct: from tissue; host or cells: whole anesthetized rat (peripheral receptors)
T1 sequence (P35563 24-483): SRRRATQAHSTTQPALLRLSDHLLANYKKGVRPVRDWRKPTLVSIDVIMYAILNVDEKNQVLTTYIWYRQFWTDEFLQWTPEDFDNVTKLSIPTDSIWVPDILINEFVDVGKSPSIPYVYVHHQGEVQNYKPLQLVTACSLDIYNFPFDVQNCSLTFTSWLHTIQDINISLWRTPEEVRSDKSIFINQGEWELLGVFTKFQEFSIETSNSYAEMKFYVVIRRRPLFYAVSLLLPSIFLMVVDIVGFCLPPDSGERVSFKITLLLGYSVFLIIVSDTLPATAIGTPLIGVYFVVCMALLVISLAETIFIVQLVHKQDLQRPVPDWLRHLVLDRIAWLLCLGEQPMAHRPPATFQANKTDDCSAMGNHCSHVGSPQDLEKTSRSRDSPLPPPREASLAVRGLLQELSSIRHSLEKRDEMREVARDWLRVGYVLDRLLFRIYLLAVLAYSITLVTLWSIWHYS
Description: A bolus i.v. injection of serotonin (5-HT) (20 μg/kg) caused reflex bradycardia transiently (von Bezold—Jarish Effect: B.J.E.) via activation of peripheral 5-HT3 receptor in anesthetized rats.

[7] = test system: scopolamine-induced spatial learning deficit; assay: Water maze, scopolamine-induced deficit in spatial learning; format: in vivo, rats; conditions: p.o. 60 minutes before each trial; Cm.A 1.0 mg/kg/day; scopolamine 0.5 mg/kg i.p.
Description: A total of 6 trials (2 trials on 1st day, and 1 trial after 2nd day) were conducted to observe the effects of the test compounds. Scopolamine (0.5 mg/kg, i.p.) and the test compounds (p.o.) were administered 30 and 60 minutes before each trial, respectively.

[8] = biological target: T2, 5-HT3 receptor (Mus musculus, UniProt P23979); assay: serotonin 5-HT3 binding assay (NovaScreen), NIE-115 cells; conditions: 20 mM HEPES pH 7.4, 150 mM NaCl, 25° C., 60 minutes
T2 construct: The receptor source was NIE-115 cells; host or cells: NIE-115 cells
T2 sequence (P23979 24-489): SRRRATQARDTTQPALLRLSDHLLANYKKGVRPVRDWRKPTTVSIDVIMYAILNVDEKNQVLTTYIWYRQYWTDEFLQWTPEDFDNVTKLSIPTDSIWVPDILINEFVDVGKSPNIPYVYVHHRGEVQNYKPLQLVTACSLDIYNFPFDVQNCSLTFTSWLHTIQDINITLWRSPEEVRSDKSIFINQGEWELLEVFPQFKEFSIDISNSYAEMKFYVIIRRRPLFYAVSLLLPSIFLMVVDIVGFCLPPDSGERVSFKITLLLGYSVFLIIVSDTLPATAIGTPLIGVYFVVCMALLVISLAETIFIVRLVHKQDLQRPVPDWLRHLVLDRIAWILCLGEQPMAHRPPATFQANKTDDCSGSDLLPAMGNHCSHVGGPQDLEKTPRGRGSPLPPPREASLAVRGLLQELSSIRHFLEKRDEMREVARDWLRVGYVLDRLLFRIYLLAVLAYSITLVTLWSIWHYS
Description: Binding affinity of a variety of compounds, including Cm.A, for the 5-HT3 receptor was investigated using a commercially available serotonin 5-HT3 binding assay (NovaScreen, Hanover, Md.). The receptor source was NIE-115 cells (See Lunnis, S. C. R. and Kilparick, G. J., 189: Evr. Jrnl. Pharmacol. 223 (1990); and Hoyer, D. and Heijt, H. C., 33 Mol. Pharmacol., 303 (1988)). The reference compound utilized was “MDL 72222,” a 5-HT3 receptor antagonist. Reactions were carried out in 20 mM HEPES (pH 7.4) containing 150 mM NaCl at 25° C. for 60 minutes. The reaction was terminated by rapid vacuum filtration onto glass fiber filters. Radioactivity trapped onto the filters was determined and compared with the control values.

Nc1c2c(nc3ccccc13)CCCC2 [THA, 1,2,3,4-tetrahydro-9-acridinamine, reference compound]
Clinical signs softstool [1]: − | Clinical signs vomiting [1]: + | Food consumption [1]: − | deficit of spatial learning (escape latency) [2]: also improved this type of deficit | increase of ACh content compared with Cm.A ([3]; hippocampus, i.p.): somewhat weak | centrally acting cholinergic symptoms (tremor, chewing and yawning) ([3]; rat, in vivo, ip): more apparent as compared with Cm.A | centrally acting cholinergic symptoms (tremor, chewing and yawning) ([4]; rat, in vivo, ip): greater severity as compared with Cm.A | increase of ACh content compared with Cm.A ([4]; striatum, young rats, i.p.): increased the ACh content more potently and long-lastingly than Cm.A | Blood biochemistry ([5]; F, oral, four weeks): ↓: CHE | Clinical signs softstool ([5]; monkey, in vivo, po): +++ | clinical signs ([5]; monkey, in vivo, po): severe vomiting and soft stools or diarrhea | food consumption and body weight ([5]; monkey, in vivo, po): decrease in body weight and food consumption | blood biochemical tests ([5]; oral, four weeks): increase in TG and NEFA, decrease in ChE and T.Cho | inhibition of 5-HT-evoked B.J.E. (reflex bradycardia) [6]: slight tendency to decrease the reflex | blood pressure, heart rate and other signs [6]: caused severe hypertension, salivation and tremor | deficit in spatial learning (escape latency) [7]: no significant effect

COc1cc2c(cc1OC)C(=O)C(CC1CCN(Cc3ccccc3)CC1)C2 (stereo not drawn) [E2020, donepezil]
deficit of spatial learning (escape latency) [2]: also improved this type of deficit | inhibition of 5-HT-evoked B.J.E. (reflex bradycardia) [6]: no inhibitory effect on B.J.E. | blood pressure, heart rate and other signs [6]: caused hypertension, salivation and tremor

CN1[C@@H]2CC[C@H]1C[C@@H](OC(=O)c1cc(Cl)cc(Cl)c1)C2 [MDL 72222]
IC50 ([8]; read-out: IC50): 8.99 nM | Ki ([8]; read-out: Ki): 4.14 nM
